Experimental data reported in ChEMBL document CHEMBL3813662, “Synthesis and biological activity of pyrazole analogues of the staurosporine aglycon K252c” (Bioorg Med Chem, 2016).
The source made the active and inactive calls. The rule behind the calls is not given here.

Tests used:
[1] = target: Protein kinase C gamma type (Homo sapiens) (UniProt P05129); assay: Inhibition of human full length (His)6-tagged PKCgamma expressed in insect Sf21 cells using histone H1 as substrate assessed as residual enzyme activity at 1 uM measured for 30 mins by [gamma-33P]ATP-based kinase assay
[2] = target: T1, DNA topoisomerase 1 (Homo sapiens) (UniProt P11387); assay: Inhibition of human topoisomerase1 activity at 20 uM using pBR322 plasmid DNA as substrate incubated for 30 mins by EtBr-based gel electrophoresis
T1 sequence (whole entry): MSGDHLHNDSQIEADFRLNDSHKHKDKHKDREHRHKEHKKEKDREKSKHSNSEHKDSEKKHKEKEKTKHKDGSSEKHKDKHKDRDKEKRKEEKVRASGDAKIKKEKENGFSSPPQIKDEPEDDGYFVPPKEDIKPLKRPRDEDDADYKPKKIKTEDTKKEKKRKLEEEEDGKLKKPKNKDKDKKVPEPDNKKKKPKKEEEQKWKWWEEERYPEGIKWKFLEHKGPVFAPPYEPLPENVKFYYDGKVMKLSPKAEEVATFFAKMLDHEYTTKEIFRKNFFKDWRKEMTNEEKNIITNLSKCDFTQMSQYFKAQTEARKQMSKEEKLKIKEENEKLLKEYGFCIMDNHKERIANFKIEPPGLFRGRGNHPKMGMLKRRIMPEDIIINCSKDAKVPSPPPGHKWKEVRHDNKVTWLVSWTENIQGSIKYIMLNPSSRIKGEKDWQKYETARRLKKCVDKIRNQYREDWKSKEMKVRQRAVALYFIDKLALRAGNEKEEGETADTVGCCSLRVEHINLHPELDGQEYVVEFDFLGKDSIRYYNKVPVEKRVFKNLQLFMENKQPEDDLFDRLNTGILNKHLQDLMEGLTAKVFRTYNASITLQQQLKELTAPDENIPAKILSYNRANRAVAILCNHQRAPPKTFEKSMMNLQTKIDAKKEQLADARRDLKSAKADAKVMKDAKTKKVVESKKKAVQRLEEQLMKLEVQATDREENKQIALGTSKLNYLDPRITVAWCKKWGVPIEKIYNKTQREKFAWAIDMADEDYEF

[3] = target: Protein kinase C alpha type (Homo sapiens) (UniProt P17252); assay: Inhibition of human full length (His)6-tagged PKCalpha expressed in insect Sf21 cells using histone H1 as substrate assessed as residual enzyme activity at 1 uM measured for 30 mins by [gamma-33P]ATP-based kinase assay
K562 [4] = assay: Cytotoxicity against human K562 cells after 72 hrs by MTT assay; format: functional, cell-based; conditions: K562, 72 h
[5] = target: Serine/threonine-protein kinase pim-2 (Homo sapiens, UniProt Q9P1W9); assay: Inhibition of human full length GST-tagged Pim-2 expressed in Escherichia coli using RSRHSSYPAGT as substrate measured for 30 mins by [gamma-33P]ATP-based kinase assay
Serine/threonine-protein kinase pim-2, sequence (Q9P1W9 whole entry): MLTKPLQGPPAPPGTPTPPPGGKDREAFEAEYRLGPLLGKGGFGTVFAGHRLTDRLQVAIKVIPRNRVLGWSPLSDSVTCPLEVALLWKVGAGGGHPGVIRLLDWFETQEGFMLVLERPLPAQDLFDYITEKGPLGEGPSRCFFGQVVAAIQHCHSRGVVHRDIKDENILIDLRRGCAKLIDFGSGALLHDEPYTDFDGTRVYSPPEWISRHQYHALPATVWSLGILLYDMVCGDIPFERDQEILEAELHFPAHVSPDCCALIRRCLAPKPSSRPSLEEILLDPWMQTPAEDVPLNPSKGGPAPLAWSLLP

[6] = Cytotoxicity against human HCT116 cells after 72 hrs by MTT assay; format: functional, cell-based; conditions: HCT-116, 72 h
Calf thymus DNA [7] = assay: Binding affinity to calf thymus double stranded DNA assessed as dsDNA level causing quenching of compound fluorescence by fluorescence spectrophotometric analysis; format: nucleic-acid assay, Bos taurus
[8] = target: Serine/threonine-protein kinase pim-3 (Homo sapiens, UniProt Q86V86); assay: Inhibition of human full length (His)6-tagged Pim-3 expressed in insect Sf21 cells using RSRHSSYPAGT as substrate measured for 30 mins by [gamma-33P]ATP-based kinase assay
[9] = target: T2, Serine/threonine-protein kinase pim-1 (Homo sapiens, UniProt P11309); assay: Inhibition of human full length (His)6-tagged Pim-1 expressed in insect Sf21 cells using RSRHSSYPAGT as substrate assessed as residual enzyme activity at 10 uM measured for 30 mins by [gamma-33P]ATP-based kinase assay
Target sequence in this assay (P11309 whole entry, looked up): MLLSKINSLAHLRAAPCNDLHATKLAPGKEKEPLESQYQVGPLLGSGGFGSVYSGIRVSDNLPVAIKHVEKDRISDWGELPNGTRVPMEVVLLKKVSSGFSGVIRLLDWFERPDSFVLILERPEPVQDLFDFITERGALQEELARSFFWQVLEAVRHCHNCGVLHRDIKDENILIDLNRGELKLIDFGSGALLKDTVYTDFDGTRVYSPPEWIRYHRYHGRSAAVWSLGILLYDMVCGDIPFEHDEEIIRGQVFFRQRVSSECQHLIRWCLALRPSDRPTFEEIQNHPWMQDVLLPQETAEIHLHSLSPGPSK

[10] = target: T2, Serine/threonine-protein kinase pim-1; assay: Inhibition of human full length (His)6-tagged Pim-1 expressed in insect Sf21 cells using RSRHSSYPAGT as substrate assessed as residual enzyme activity at 1 uM measured for 30 mins by [gamma-33P]ATP-based kinase assay
Target sequence in this assay (P11309 whole entry, looked up): as above

Calf thymus DNA [11] = assay: Displacement of EtBr from calf thymus double stranded DNA by fluorescence spectrophotometric analysis; format: nucleic-acid assay, Bos taurus
[12] = target: Protein kinase C alpha type (Homo sapiens) (UniProt P17252); assay: Inhibition of human full length (His)6-tagged PKCalpha expressed in insect Sf21 cells using histone H1 as substrate assessed as residual enzyme activity at 10 uM measured for 30 mins by [gamma-33P]ATP-based kinase assay
[13] = target: T2, Serine/threonine-protein kinase pim-1; assay: Inhibition of human full length (His)6-tagged Pim-1 expressed in insect Sf21 cells using RSRHSSYPAGT as substrate measured for 30 mins by [gamma-33P]ATP-based kinase assay
Target sequence in this assay (P11309 whole entry): as the sequence (P11309 whole entry, looked up) above

[14] = target: Protein kinase C gamma type (Homo sapiens) (UniProt P05129); assay: Inhibition of human full length (His)6-tagged PKCgamma expressed in insect Sf21 cells using histone H1 as substrate assessed as residual enzyme activity at 10 uM measured for 30 mins by [gamma-33P]ATP-based kinase assay
K562 [15] = assay: Cytotoxicity against human K562 cells; format: functional, cell-based

| Structure (SMILES) | Activity [1] [%] | inhibition [2] | Activity [3] [%] | IC50 (K562 [4]) [µM] | IC50 [5] [µM] | IC50 [6] [µM] | IC50 (Calf thymus DNA [7]) [µM] | IC50 [8] [µM] | Activity [9] [%] | Activity [10] [%] | IC50 (Calf thymus DNA [11]) [µM] | Activity [12] [%] | IC50 [13] [µM] | Activity [14] [%] | IC50 (K562 [15]) [µM] |
| --- | --- | --- | --- | --- | --- | --- | --- | --- | --- | --- | --- | --- | --- | --- | --- |
| c1ccc2c(c1)[nH]c1c3[nH]c4ccccc4c3c3[nH]ncc3c21 | 101 | inactive | 103 | 4.5 | 0.59 | 4.2 | 90 | 0.022 | 2 | 13 | 16 | 108 | 0.15 | 91 | – |
| c1ccc2c(-c3cn[nH]c3-c3c[nH]c4ccccc34)c[nH]c2c1 | 105 | – | 112 | 18 | – | 30 | – | – | 73 | 98 | – | 100 | – | 91 | – |
| O=c1[nH][nH]c2c1c1c3ccccc3[nH]c1c1[nH]c3ccccc3c12 | 97 | – | 107 | 8.8 | – | 3.5 | – | – | 8 | 47 | – | 110 | – | 99 | – |
| O=C1NCc2c1c1c3ccccc3[nH]c1c1[nH]c3ccccc3c21 [STAUROSPORINONE] | – | – | – | – | – | – | – | – | – | – | – | – | – | – | 7.8 |
| O=c1[nH][nH]c(-c2c[nH]c3ccccc23)c1-c1c[nH]c2ccccc12 | 100 | – | 117 | > 50 | – | > 50 | – | – | 67 | 94 | – | 93 | – | 92 | – |
